Measurements reported in paper PMC6278960 (Haematologica, 2018).

Biological target: protein disulfide isomerase (PDI) (Homo sapiens, UniProt P07237)
Assay: turbidimetric insulin disulfide reduction assay with recombinant human PDI
Type: biochemical

protein disulfide isomerase (PDI), sequence (P07237 18-508): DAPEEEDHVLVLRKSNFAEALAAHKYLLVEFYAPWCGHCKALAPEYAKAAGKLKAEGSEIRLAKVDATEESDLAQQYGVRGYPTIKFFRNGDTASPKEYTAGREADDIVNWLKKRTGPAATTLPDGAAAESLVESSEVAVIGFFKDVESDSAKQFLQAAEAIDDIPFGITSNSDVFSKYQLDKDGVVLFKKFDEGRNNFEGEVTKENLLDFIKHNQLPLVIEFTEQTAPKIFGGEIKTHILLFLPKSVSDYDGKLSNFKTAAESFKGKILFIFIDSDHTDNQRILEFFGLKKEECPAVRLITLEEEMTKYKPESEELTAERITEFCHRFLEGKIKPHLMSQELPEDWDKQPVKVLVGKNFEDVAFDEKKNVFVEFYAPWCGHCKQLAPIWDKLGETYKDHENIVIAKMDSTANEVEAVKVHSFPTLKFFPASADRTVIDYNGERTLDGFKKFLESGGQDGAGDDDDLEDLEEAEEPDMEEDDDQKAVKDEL

IC50: 9.98 µM
Substance: SK053
